Laboratory results: the NIST ThermoML archive (doi:10.1016/j.fluid.2008.01.004)
Numbers after ± are expanded uncertainties.

How the values were obtained:
[1] = wn = mass fraction of the nth substance listed; conditions: 101 kPa, Liquid; for speed of sound: Sing-around technique in a fixed-path interferometer
[2] = mn = molality of the nth substance listed, in mol/kg; conditions: 283.15 K; 101 kPa; Liquid; m2 = 0

CCCO [propan-1-ol] + O
[1]
Conditions	mass density, 283.15 K [kg/m3]	mass density, 288.15 K [kg/m3]	mass density, 293.15 K [kg/m3]	mass density, 298.15 K [kg/m3]	mass density, 303.15 K [kg/m3]	speed of sound, 283.15 K [m/s]	speed of sound, 288.15 K [m/s]	speed of sound, 293.15 K [m/s]	speed of sound, 298.15 K [m/s]	speed of sound, 303.15 K [m/s]
w1 = 0.05	992.405 ± 0.29	991.687 ± 0.31	990.671 ± 0.31	989.387 ± 0.31	987.86 ± 0.29	1499 ± 1.1	1512.2 ± 1.1	1523.9 ± 1.1	1533.8 ± 1.1	1542.2 ± 1.1
w1 = 0.1	987.187 ± 0.29	986.194 ± 0.29	984.913 ± 0.29	983.372 ± 0.29	981.595 ± 0.29	1548.6 ± 1.1	1556.5 ± 1.1	1563.3 ± 1.1	1568.7 ± 1.1	1572.9 ± 1.1
w1 = 0.15	982.892 ± 0.3	981.496 ± 0.31	979.828 ± 0.31	977.921 ± 0.31	975.791 ± 0.31	1585.2 ± 1.1	1587.6 ± 1.1	1589 ± 1.1	1589.2 ± 1.1	1588.6 ± 1.1

O [water] + O=P([O-])([O-])[O-].[Na+].[Na+].[Na+]
Conditions	mass density [kg/m3]
[2]	999.699 ± 0.26
